Publication PMC4665511, “An Improved Neutral α-Glucosidase Assay for Assessment of Epididymal Function—Validation and Comparison to the WHO Method” (Diagnostics, 2014)

System: T1, Neutral α-glucosidase (NAG)
T1 construct: gene MGAM; native, unpurified enzyme in human seminal plasma
Experiment: spectrophotometric PNP release at […] nm, Michaelis-Menten
Assay type: biochemical, Homo sapiens
Settings: seminal plasma, not purified; average of semen samples (n = 13 in methods); adapted proprietary buffer with SDS, pH 6.8, 37 °C

O=[N+]([O-])c1ccc(O[C@H]2O[C@H](CO)[C@@H](O)[C@H](O)[C@H]2O)cc1 [para-nitrophenyl-α-D-glucopyranoside]
Km: 4.6 ± 0.63 mM
